For 92 compounds, IC50 results are on record in PubChem BioAssay AID493092 (Sanford-Burnham Center for Chemical Genomics, 2011).

pIC50: −log10 of the molar value. The source made the active and inactive calls.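 The calls were made as follows: active = averaged IC50 for reducing per-cell lipid droplet stain intensity under a set limit; inactive = the rest.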

For the experiment, the system named is AML12 mouse hepatocytes, BODIPY lipid droplet imaging. Description: lipid droplet accumulation inhibition in liver cells – imaging, AML12 mouse hepatocytes, BODIPY staining, SAR follow-up (AID 493092). As to conditions: cells fed 100 µM oleate overnight.
Broadly, the pIC50 is the IC50 on a negative log10 scale, so that one unit is a factor of ten. Take `COc1cc(NC(=O)c2cccs2)c(OC)cc1NC(=O)CCC(=O)Nc1cc(C)cc(C)c1`: the negative logarithm of the IC50 (pIC50) is 7.06. With `CCOc1ccc(CCNC(=O)CCc2nc(-c3ccc(OC)cc3)no2)cc1OCC`, the negative logarithm of the IC50 (pIC50) is 6.52. By IC50 is commonly meant the concentration that gives 50% inhibition. In the case of `CCOc1ccc(CCNC(=O)CSc2cc(=O)n(C)c3cc(Cl)ccc23)cc1OCC`, the IC50 is > 32000 nM (inactive). In the case of `CCOc1ccc(CCNC(=O)COC(=O)c2cc(OC)cc(OC)c2)cc1OCC`, the pIC50 was 6.13. Turning to `O=C(Nc1nc(-c2ccc(-c3ccccc3)cc2)cs1)C1CCCO1` (configuration not stated), the pIC50 was 5.96. On to `Cc1ccc(-c2cnn3c(N4CCOCC4)cc(C)nc23)cc1`, for which the IC50 was 10600 nM (inactive). Consider `CCOc1cc2c(cc1OCC)C(c1ccccc1)N(c1ccccc1)C(=O)C2` (configuration not stated), for which the pIC50 is 6.54. Still for that read-out and setting: the same measure for `Cc1cc(N2CCOCC2)n2nc(C(F)(F)F)c(-c3ccc(Cl)cc3)c2n1`: 6.95; for `CCOc1ccc(CCNC(=O)CN2CCN(Cc3ccccc3C)C2=O)cc1OCC`: 6.26.

As for `CC(=O)Nc1ccc(-c2csc(NC(=O)Cc3cccc(F)c3)n2)cc1`, the negative-log IC50 (pIC50) was 5.57. With `COc1cc(NC(=O)c2cccs2)c(OC)cc1NC(=O)CCC(=O)Nc1cccc2ccccc12`, the pIC50 is 6.59. `CCOc1ccc(CCNC(=O)CSc2cc(=O)n(CC)c3ccccc23)cc1OCC`: the negative-log IC50 (pIC50) was 5.90.

`CCOc1ccc(C(=O)NCC(=O)NC(C)CCc2ccccc2)cc1OCC` (configuration not stated): the pIC50 is 6.16. For `COc1ccc(CCNC(=O)Nc2ccccc2Cl)cc1OC`, the IC50 was > 32000 nM (inactive).

`CCOc1cc(CNC(=O)CCCn2c(=O)c3cccn3c3cccnc32)cc(OCC)c1OCC`: the negative logarithm of the IC50 (pIC50) is 6.66.

For the compound `CC(C)Oc1ccc(C(=O)OC(C)C(=O)Nc2nc(-c3cccc([N+](=O)[O-])c3)cs2)cc1` (configuration not stated), the negative logarithm of the IC50 (pIC50) is 6.97. As to `COc1ccc(C)cc1CN(C)C(=O)C(C)NC(=O)Cc1cccc2ccccc12` (configuration not stated), the pIC50 was 5.98.

Take `CCOc1ccc(CCNC(=O)CCc2nnc3ccc(N4CCCCC4)nn23)cc1OCC`: the pIC50 is 6.44. As to `Cc1ccc(C(=O)NCC(=O)NCCCc2ccccc2)cc1`, the IC50 is > 32000 nM (inactive). As to `COc1ccc(C(=O)OCC(=O)NC(C)CCc2ccccc2)c(OC)c1` (configuration not stated), the pIC50 is 6.00.

With `Cc1ccc(-c2c(C)nn3c(N4CCOCC4)cc(C)nc23)cc1`, the pIC50 is 6.61.

Regarding `Cc1cc(N2CCOCC2)n2ncc(-c3ccccc3)c2n1`, the pIC50 was 5.51. Turning to `CCOc1ccc(CCNC(=O)Cn2cccc2C(=O)c2ccccc2C)cc1OCC`, the pIC50 was 6.48. For the compound `Cc1cc(N2CCOCC2)n2ncc(-c3ccc(F)cc3)c2n1`, the pIC50 was 5.67.

As for `CCOc1ccccc1Nc1nnc(SC(C)C(=O)Nc2nc(-c3ccccc3)cs2)s1` (configuration not stated), the pIC50 is 5.94. On to `CCOc1ccc(CCNC(=O)Cn2cccc2C(=O)c2ccccc2)cc1OCC`, for which the negative-log IC50 (pIC50) was 6.37. As for `CCOc1ccc(NC(=O)CCC(=O)Nc2cc(OC)c(NC(=O)c3cccs3)cc2OC)cc1`, the pIC50 was 6.56. Regarding `COc1ccccc1NC(=O)C1CCN(C(=O)NCc2ccccc2)CC1`, the pIC50 is 5.49. On to `COc1ccc(CCNC(=O)Nc2ccc(F)cc2F)cc1OC`, for which the IC50 was > 32000 nM (inactive). On the same count and under the same terms, then `COc1ccc(CCNC(=O)Nc2ccccc2C(F)(F)F)cc1OC`, with > 32000 nM (inactive). Consider `CCOc1ccc(CCNC(=O)c2cc3sc(Cl)cc3n2C)cc1OCC`, for which the negative logarithm of the IC50 (pIC50) was 7.04. On the same count and under the same terms, the same measure for `O=C(NCc1ccc2c(c1)OCO2)c1cc(-c2ccccc2)c(N2CCOCC2)s1`: 6.39.

`CC(OC(=O)c1ccc(O)cc1)C(=O)Nc1nc(-c2cccc([N+](=O)[O-])c2)cs1` (configuration not stated): the IC50 is > 32000 nM (inactive). Take `CCN(CC)S(=O)(=O)c1ccc(C(=O)NCC(=O)NCCCc2ccccc2)cc1`: the IC50 is > 32000 nM (inactive). For `CCOC(=O)c1cc(CC)sc1NC(=O)C1CC(=O)NN1Cc1ccccc1` (configuration not stated), the negative logarithm of the IC50 (pIC50) was 6.47. With `CCOc1cc2c(cc1OCC)CN(C(=O)CNC(=O)c1ccc3ccccc3c1)CC2`, the pIC50 is 6.51. Still for that read-out and setting: then `COc1ccc(CN(C)C(=O)CNC(=O)Cc2cccc3ccccc23)c(OC)c1OC`, with 5.63; and `CCOc1ccc(CCNC(=O)Nc2ccccc2)cc1OCC`, with 6.59; and `CCOc1ccc(C(=O)OCC(=O)Nc2nc(OC)cc(OC)n2)cc1OCC`, with 6.23. Take `Cc1cc(N2CCOCC2)n2nc(C)c(-c3ccc(Cl)cc3)c2n1`: the pIC50 is 6.80. Still for that read-out and setting: the same measure for `Cc1ccc(-n2nc3c(=O)n(CC(=O)NC(C)CCc4ccccc4)nc(C)c3c2C)cc1` (configuration not stated): 6.38; for `COc1ccc(C(=O)OC(C)C(=O)Nc2cc(C(F)(F)F)ccc2Cl)c(OC)c1OC` (configuration not stated): 6.36. For `CC(Sc1nnc(Nc2ccccc2)s1)C(=O)Nc1nc(-c2ccccc2)cs1` (configuration not stated), the pIC50 was 5.43.

For the compound `Cc1cc(N2CCOCC2)n2nc(C)c(-c3ccccc3)c2n1`, the negative logarithm of the IC50 (pIC50) is 6.66. Regarding `Cc1ccccc1C(=O)NCC(=O)NCCC(c1ccccc1)c1ccccc1`, the IC50 is > 32000 nM (inactive). Consider `CCOc1ccc(CCNC(=O)C2CC=CCC2C(=O)OC(C)C)cc1OCC` (configuration not stated), for which the pIC50 was 6.57.

In the case of `CCOc1ccc(CCNC(=O)CCC(=O)N2CCOc3ccc(C)cc32)cc1OCC`, the negative logarithm of the IC50 (pIC50) is 6.53. Turning to `CCc1ccc(NC(=O)CCC(=O)Nc2cc(OC)c(NC(=O)c3cccs3)cc2OC)cc1`, the negative logarithm of the IC50 (pIC50) is 6.47.

For `O=C(CNC(=O)c1cccc(Br)c1)NCCCc1ccccc1`, the IC50 was > 32000 nM (inactive). As to `Cc1nn2c(N3CCOCC3)cc(C(C)(C)C)nc2c1-c1ccc(Cl)cc1`, the IC50 is > 32000 nM (inactive). Consider `COc1ccc(CNC(=O)CN2C(=O)NC(C)(c3cccc4ccccc34)C2=O)cc1OC` (configuration not stated), for which the pIC50 is 5.93. The same measure, in the same setting: the same measure for `COc1ccc(CN(C)C(=O)CNC(=O)Cc2cccc3ccccc23)c(OC)c1`: 5.52. As to `COc1cccc(CN(C)C(=O)CNC(=O)Cc2cccc3ccccc23)c1OC`, the IC50 is > 32000 nM (inactive). With `CCOc1ccc(CN(C)C(=O)CNC(=O)c2ccc(Br)o2)cc1OC`, the pIC50 was 5.74. Regarding `COc1ccc(NC(=O)CCC(=O)Nc2cc(OC)c(NC(=O)c3cccs3)cc2OC)cc1`, the negative-log IC50 (pIC50) was 6.20.

As for `CCCc1cc(N2CCOCC2)n2ncc(-c3ccccc3)c2n1`, the negative-log IC50 (pIC50) is 5.60. On to `COc1cc(OC)cc(C(=O)NCC(=O)NC(C)CCc2ccccc2)c1` (configuration not stated), for which the IC50 is > 32000 nM (inactive). Consider `CCOc1ccc(CCNC(=O)Cn2ncn3nc(-c4ccc(OC)cc4)cc3c2=O)cc1OCC`, for which the pIC50 was 6.92. Regarding `COc1ccc(CCNC(=O)Nc2cc(F)c(F)cc2Cl)cc1OC`, the IC50 was > 32000 nM (inactive). In the case of `CCOc1ccc(CN(C)C(=O)CNC(=O)c2ccc3ccccc3c2)cc1OC`, the pIC50 was 6.40. Take `COc1ccccc1NS(=O)(=O)c1ccc(NN=Cc2c(C)nn(-c3ccccc3)c2N2CCCC2)c([N+](=O)[O-])c1`: the pIC50 is 6.05. Consider `CC(OC(=O)c1cccc([N+](=O)[O-])c1)C(=O)Nc1nc(-c2ccccc2)cs1` (configuration not stated), for which the IC50 is > 32000 nM (inactive). As to `CCOc1ccc(CCNC(=O)COC(=O)c2cc(OC)c(OC)c(OC)c2)cc1OCC`, the pIC50 was 6.99. As to `COc1ccc(CCNC(=O)Nc2ccccc2C#N)cc1OC`, the IC50 was > 32000 nM (inactive). For the compound `CN(Cc1ccc2c(c1)OCO2)C(=O)CNC(=O)Cc1cccc2ccccc12`, the IC50 was > 32000 nM (inactive). For `Cc1nn2c(N3CCOCC3)c3c(nc2c1-c1ccccc1)CCC3`, the IC50 is 21600 nM (inactive). For the compound `O=C(CSCC(=O)N1CCCc2ccccc21)Nc1nc(-c2ccccc2)cs1`, the IC50 is 11800 nM (inactive).

For the compound `COc1cc(NC(=O)c2cccs2)c(OC)cc1NC(=O)CCC(=O)Nc1c(C)cccc1C`, the pIC50 is 5.66.

Take `CCOc1ccc(C(=O)OCC(=O)Nc2cc(C)on2)cc1OCC`: the pIC50 is 6.06. Take `CCOc1ccc(CCNC(=O)CCc2nnc3ccc(N4CCCC4)nn23)cc1OCC`: the pIC50 was 6.04. Same read-out and setting: then `COc1cc(NC(=O)c2cccs2)c(OC)cc1NC(=O)CCC(=O)Nc1cccc2ncccc12`, with 5.35; and `COc1ccc(C(=O)OC(C)C(=O)NC(C)CCc2ccccc2)cc1[N+](=O)[O-]` (configuration not stated), with 6.58. Turning to `CCOc1ccc(CCNC(=O)CCOc2cc(C)ccc2C)cc1OCC`, the negative logarithm of the IC50 (pIC50) is 6.99.

With `CCOc1ccc(CCNC(=O)CCC(=O)N2CCOc3ccccc32)cc1OCC`, the pIC50 is 6.79. As to `CCOc1ccc(CCNC(=O)CN2C(=O)c3cccnc3Oc3ccc(C)cc32)cc1OCC`, the pIC50 is 6.77. On the same count and under the same terms, then `CC1CCCN(C(=O)c2ccc3c(c2NCCO)C(=O)c2ccccc2C3=O)C1` (configuration not stated), with 5.65. On to `Cc1cc(N2CCOCC2)n2nc(C)c(-c3ccccc3Cl)c2n1`, for which the pIC50 was 6.39. Take `CC(OC(=O)c1ccc2c(c1)OCO2)C(=O)Nc1nc(-c2cccc([N+](=O)[O-])c2)cs1` (configuration not stated): the IC50 was > 32000 nM (inactive). Regarding `CCOc1ccc(CN(C)C(=O)CNC(=O)Cc2cccc3ccccc23)cc1`, the negative logarithm of the IC50 (pIC50) was 6.77. For the compound `Cc1cc(C(=O)OC(C)C(=O)Nc2nc(-c3ccccc3)cs2)c(C)o1` (configuration not stated), the negative logarithm of the IC50 (pIC50) is 6.37. As for `Cc1sc(NC(=O)Cc2ccc3c(c2)OCO3)nc1-c1ccc2c(c1)CCN2C(=O)c1ccccc1F`, the IC50 was > 32000 nM (inactive). Take `COc1ccc(C(=O)OCC(=O)NC(C)CCc2ccccc2)cc1OC` (configuration not stated): the IC50 is 8730 nM (inactive). In the case of `CCOc1ccc(CCNC(=O)c2nnc(Cc3ccc(F)cc3)o2)cc1OCC`, the negative logarithm of the IC50 (pIC50) was 6.27. Consider `COc1ccc(-c2csc(NC(=O)c3ccc(OCC(=O)N4CCOCC4)c(OC)c3)n2)cc1OC`, for which the negative-log IC50 (pIC50) is 5.99. The same measure, in the same setting: then `CCOc1ccc(C(C)NC(=O)Cc2ccccc2F)cc1OCC` (configuration not stated), with 6.08; and `CCCc1cc(N2CCCC2)n2nc(C)c(-c3ccccc3)c2n1`, with 6.15; and `CCOc1ccc(CCNC(=O)Nc2cccc(OC)c2)cc1OCC`, with 6.87. Same read-out and setting: then `COc1cc2c(cc1OC)CN(C(=O)CNC(=O)Cc1cccc3ccccc13)CC2`, with 6.33. Take `CCOc1ccc(CCNC(=O)CSc2cc(=O)n(C)c3ccccc23)cc1OCC`: the pIC50 is 6.30.

Turning to `O=C(Cc1cccc2ccccc12)NCC(=O)N1CCc2ccccc2C1`, the IC50 is > 32000 nM (inactive).

Take `COc1ccc(CCNC(=O)Nc2ccc(C(C)=O)cc2)cc1OC`: the IC50 was > 32000 nM (inactive). Turning to `COc1ccc(-c2csc(NC(=O)c3ccc(OCC(=O)N4CCOCC4)c(OC)c3)n2)cc1`, the pIC50 was 6.32.
